Measured values as given in patent US20240115654A1, “INTRAVENOUS ADMINISTRATION OF ENGINEERED ANTIMICROBIAL AMPHIPHILIC PEPTIDES” (priority 2021, published 2024).
Several values for one entry are separate records, joined by “and”; a condition that tells them apart may be missing. Equal entries are not always repeated. Where two headings read alike, the source gives them in different places. Peptide text beside a SMILES is read from it.

Conditions: for increase of AUC0-t / increase of mean AUC0-24: Cohorts 1 to 3
[1] = Cohort 4, 0.5 mg/kg IV infusion 2 hours, Max
[2] = Cohort 4, 0.5 mg/kg IV infusion 2 hours, Mean
[3] = Cohort 4, 0.5 mg/kg IV infusion 2 hours, Min
[4] = Cohort 4, 0.5 mg/kg IV, infusion 2 hours, cohort Geometric Mean
[5] = Cohort 4, 0.5 mg/kg IV, infusion 2 hours, cohort Mean
[6] = Cohort 4, 0.5 mg/kg IV, infusion 2 hours, cohort Median
[7] = Cohort 5, 1 mg/kg IV infusion 4 hours, Max
[8] = Cohort 5, 1 mg/kg IV infusion 4 hours, Min
[9] = Phase 1 subjects, 1-hr IV infusion
[10] = over the 5-fold increase in dose
[11] = single 1-hour infusion 0.05 mg/kg, Geometric Mean
[12] = single 1-hour infusion 0.05 mg/kg, Max
[13] = single 1-hour infusion 0.05 mg/kg, Mean
[14] = single 1-hour infusion 0.05 mg/kg, Median
[15] = single 1-hour infusion 0.05 mg/kg, Min
[16] = single 1-hour infusion 0.05 mg/kg, individual subjects
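Note: phase 1 study in human subjects given one IV dose of the peptide, enrolled in sequential ascending-dose cohorts and randomized to peptide or placebo.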

Q: Which AUC(0-inf) [1] does the source give for `CC(C)[C@H](NC(=O)[C@H](Cc1c[nH]c2ccccc12)NC(=O)[C@H](CCCNC(=N)N)NC(=O)[C@H](CCCNC(=N)N)NC(=O)[C@@H](NC(=O)[C@@H](NC(=O)[C@H](CCCNC(=N)N)NC(=O)[C@@H](NC(=O)[C@@H](NC(=O)[C@H](CCCNC(=N)N)NC(=O)[C@H](CCCNC(=N)N)NC(=O)[C@H](Cc1c[nH]c2ccccc12)NC(=O)[C@@H](NC(=O)[C@H](CCCNC(=N)N)NC(=O)[C@H](CCCNC(=N)N)NC(=O)[C@@H](NC(=O)[C@H](CCCNC(=N)N)NC(=O)[C@H](CCCNC(=N)N)NC(=O)[C@@H](NC(=O)[C@H](Cc1c[nH]c2ccccc12)NC(=O)[C@H](CCCNC(=N)N)NC(=O)[C@@H](N)CCCNC(=N)N)C(C)C)C(C)C)C(C)C)C(C)C)C(C)C)C(C)C)C(C)C)C(=O)N[C@@H](CCCNC(=N)N)C(=O)N[C@@H](CCCNC(=N)N)C(N)=O` [SEQ ID NO: 1] (H-RRWVRRVRRVWRRVVRVVRRWVRR-NH2) here?
A: The AUC(0-inf) was 13500 ng·h/mL.

Q: What about the AUC(0-t) [1] of the same compound?
A: The AUC(0-t) was 12200 ng·h/mL.

Q: And the AUCextrap [1]?
A: Its AUCextrap is 12.8%.

Q: What about the Cmax [1] of the same compound?
A: Its Cmax is 2310 ng/mL.

Q: What about the t1/2 [1] of the same compound?
A: Its t1/2 is 21.1 h.

Q: And the AUCextrap [2]?
A: Its AUCextrap is 8.22%.

Q: And the CL/F [2]?
A: The CL/F was 1.07 mL/min/kg.

Q: What about the AUCextrap (Cohort 4, 0.5 mg/kg IV infusion 2 hours, Median) of the same compound?
A: The AUCextrap was 8.81%.

Q: And the AUC0-24 [3]?
A: The AUC0-24 was 3190 ng·h/mL.

Q: What about the AUC(0-inf) [3] of the same compound?
A: The AUC(0-inf) was 3870 ng·h/mL.

Q: What about the AUC(0-t) [3] of the same compound?
A: Its AUC(0-t) is 3440 ng·h/mL.

Q: And the AUCextrap [3]?
A: The AUCextrap was 3.65%.

Q: And the CL/F [3]?
A: The CL/F was 0.615 mL/min/kg.

Q: What about the Cmax [3] of the same compound?
A: The Cmax was 994 ng/mL.

Q: And the t1/2 [3]?
A: Its t1/2 is 11.5 h.

Q: And the “Plasma Concentration by Nominal Time from Start of Infusion, Mean” value (Cohort 4, 0.5 mg/kg IV, infusion 2 hours, 0.0 h, cohort mean N 6)?
A: The value was 0.00 ng/mL.

Q: And the “Plasma Concentration by Nominal Time from Start of Infusion” value (Cohort 4, 0.5 mg/kg IV, infusion 2 hours, 0.0 h, individual subjects)?
A: Its value is 0.00 ng/mL.

Q: What about the “Plasma Concentration by Nominal Time from Start of Infusion” value (Cohort 4, 0.5 mg/kg IV, infusion 2 hours, 4.0 h, individual subjects) of the same compound?
A: Its value is 457 ng/mL and 502 ng/mL and 614 ng/mL.

Q: What about the “Plasma Concentration by Nominal Time from Start of Infusion” value (Cohort 4, 0.5 mg/kg IV, infusion 2 hours, 6.0 h, individual subjects) of the same compound?
A: The value was 249 ng/mL and 448 ng/mL and 472 ng/mL.

Q: What about the “Plasma Concentration by Nominal Time from Start of Infusion” value (Cohort 4, 0.5 mg/kg IV, infusion 2 hours, 8.0 h, individual subjects) of the same compound?
A: Its value is 164 ng/mL and 311 ng/mL and 377 ng/mL.

Q: What about the AUCextrap [4] of the same compound?
A: Its AUCextrap is 7.38%.

Q: What about the CL/F [4] of the same compound?
A: The CL/F was 0.977 mL/min/kg.

Q: And the Tlast [4]?
A: The Tlast was 46 h.

Q: What about the λz [4] of the same compound?
A: Its λz is 0.0443 h⁻¹.

Q: And the AUCextrap [5]?
A: Its AUCextrap is 8.22%.

Q: And the CL/F [5]?
A: The CL/F was 1.07 mL/min/kg.

Q: And the Tlast [5]?
A: The Tlast was 46 h.

Q: What about the λz [5] of the same compound?
A: Its λz is 0.0457 h⁻¹.

Q: What about the AUCextrap [6] of the same compound?
A: Its AUCextrap is 8.81%.

Q: What about the CL/F [6] of the same compound?
A: The CL/F was 0.892 mL/min/kg.

Q: What about the Tlast [6] of the same compound?
A: Its Tlast is 50 h.

Q: And the λz [6]?
A: The λz was 0.0461 h⁻¹.

Q: What about the Tlast (Cohort 4, 0.5 mg/kg IV, infusion 2 hours, individual subjects) of the same compound?
A: Its Tlast is 38 h (2×) and 50 h (4×).

Q: What about the “Plasma Concentration by Nominal Time from Start of Infusion, Mean” value (Cohort 5, 1 mg/kg IV 4-hr infusion, 0.0 h, cohort mean) of the same compound?
A: Its value is 0.00 ng/mL.

Q: And the AUCextrap (Cohort 5, 1 mg/kg IV infusion 4 hours, Geometric Mean)?
A: The AUCextrap was 8.61%.

Q: What about the AUC0-24 [7] of the same compound?
A: The AUC0-24 was 28800 ng·h/mL.

Q: What about the AUC(0-inf) [7] of the same compound?
A: Its AUC(0-inf) is 25700 ng·h/mL.

Q: What about the AUC(0-t) [7] of the same compound?
A: The AUC(0-t) was 34300 ng·h/mL.

Q: What about the AUCextrap [7] of the same compound?
A: Its AUCextrap is 17.8%.

Q: And the t1/2 [7]?
A: Its t1/2 is 28.3 h.

Q: What about the AUCextrap (Cohort 5, 1 mg/kg IV infusion 4 hours, Mean) of the same compound?
A: Its AUCextrap is 10.8%.

Q: What about the AUCextrap (Cohort 5, 1 mg/kg IV infusion 4 hours, Median) of the same compound?
A: Its AUCextrap is 11.6%.

Q: What about the AUC0-24 [8] of the same compound?
A: The AUC0-24 was 14000 ng·h/mL.

Q: And the AUC(0-inf) [8]?
A: Its AUC(0-inf) is 17400 ng·h/mL.

Q: What about the AUC(0-t) [8] of the same compound?
A: Its AUC(0-t) is 15800 ng·h/mL.

Q: What about the AUCextrap [8] of the same compound?
A: The AUCextrap was 2.43%.

Q: What about the Cmax [8] of the same compound?
A: Its Cmax is 2030 ng/mL.

Q: What about the t1/2 [8] of the same compound?
A: Its t1/2 is 9.59 h.

Q: What about the AUC(0-inf) (Cohort 5, 1 mg/kg IV infusion 4 hours, individual subject) of the same compound?
A: The AUC(0-inf) was 17400 ng·h/mL and 19900 ng·h/mL and 25700 ng·h/mL.

Q: What about the “actual dose-level exposure AUC0-24 relative to that predicted from animal data” value [9] of the same compound?
A: Its value is 5-10 ×.

Q: What about the “actual dose-level exposure Cmax relative to that predicted from animal data” value [9] of the same compound?
A: Its value is “about 4 ×”.

Q: And the “dose proportionality of AUC0-t” value (dose range 0.05 to 0.5 mg/kg, slope not significantly different from 1)?
A: The value was “increased proportionally with dose increase”.

Q: And the “intercept estimate, log AUC0-∞ versus log dose” value (dose range 0.05 to 1 mg/kg)?
A: Its value is 6.04.

Q: And the “slope estimate, log AUC0-∞ versus log dose” value (dose range 0.05 to 1 mg/kg, 90% CI=0.78 to 1.03)?
A: The value was 0.91.

Q: And the “increase of AUC0-t” value [10]?
A: The value was 4.2 fold.

Q: And the “increase of mean AUC0-24” value [10]?
A: Its value is 3.6 fold.

Q: And the “increase of AUC0-t” value (over the […] increase in dose)?
A: The value was 2.2 fold.

Q: What about the “increase of mean AUC0-24” value (over the […] increase in dose) of the same compound?
A: Its value is 2.0 fold.

Q: What about the AUCextrap [11] of the same compound?
A: Its AUCextrap is 8.36%.

Q: What about the Tlast [11] of the same compound?
A: The Tlast was 24 h.

Q: And the λz [11]?
A: Its λz is 0.0946 h⁻¹.

Q: What about the AUC0-24 [12] of the same compound?
A: Its AUC0-24 is 1610 ng·h/mL.

Q: What about the AUC(0-inf) [12] of the same compound?
A: The AUC(0-inf) was 1820 ng·h/mL.

Q: And the AUC(0-t) [12]?
A: Its AUC(0-t) is 1720 ng·h/mL.

Q: What about the AUCextrap [12] of the same compound?
A: The AUCextrap was 12.1%.

Q: What about the CL/F [12] of the same compound?
A: The CL/F was 0.595 mL/min/kg.

Q: What about the Cmax [12] of the same compound?
A: Its Cmax is 341 ng/mL.

Q: And the Tlast [12]?
A: Its Tlast is 37 h.

Q: And the t1/2 [12]?
A: Its t1/2 is 8.59 h.

Q: And the λz [12]?
A: The λz was 0.105 h⁻¹.

Q: And the AUCextrap [13]?
A: The AUCextrap was 8.87%.

Q: What about the Tlast [13] of the same compound?
A: Its Tlast is 25 h.

Q: What about the λz [13] of the same compound?
A: The λz was 0.095 h⁻¹.

Q: What about the AUCextrap [14] of the same compound?
A: Its AUCextrap is 8.12%.

Q: What about the Tlast [14] of the same compound?
A: Its Tlast is 25 h.

Q: What about the λz [14] of the same compound?
A: The λz was 0.0951 h⁻¹.

Q: And the AUC0-24 [15]?
A: Its AUC0-24 is 619 ng·h/mL.

Q: And the AUC(0-t) [15]?
A: Its AUC(0-t) is 515 ng·h/mL.

Q: What about the AUCextrap [15] of the same compound?
A: Its AUCextrap is 4.54%.

Q: What about the CL/F [15] of the same compound?
A: Its CL/F is 0.457 mL/min/kg.

Q: What about the Cmax [15] of the same compound?
A: The Cmax was 170 ng/mL.

Q: And the Tlast [15]?
A: The Tlast was 13 h.

Q: And the t1/2 [15]?
A: Its t1/2 is 6.62 h.

Q: And the λz [15]?
A: Its λz is 0.0807 h⁻¹.

Q: And the AUC(0-inf) [16]?
A: The AUC(0-inf) was 1490 ng·h/mL and 1800 ng·h/mL and 1820 ng·h/mL.

Q: And the CL/F [16]?
A: Its CL/F is 0.562 mL/min/kg and 0.463 mL/min/kg and 0.457 mL/min/kg.

Q: And the Tlast [16]?
A: The Tlast was 25 h (4×) and 13 h and 37 h.
